Data published in patent US20260116868A1 (Arcus Biosciences, Inc., priority 2023, published 2026).
pIC50: −log10 of the molar value.

target: T1, Cbl-b (Homo sapiens, UniProt Q13191); assay: Cbl-b probe displacement HTRF binding assay; details: 0.4 nM Cbl-b, 150 nM BODIPY probe
T1 construct: biotin (biotinylated protein)
Method in brief: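 Binding IC50 from four-parameter fit of HTRF signal loss, normalised to DMSO (0%) and no-protein (100%) wells. Biotinylated Cbl-b 0.4 nM was preincubated 60 min with compound (20-point 1:2 dilution) before 15 min with 150 nM BODIPY probe; Tb-streptavidin detection.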

T1 sequence (Q13191 whole entry, species assumed): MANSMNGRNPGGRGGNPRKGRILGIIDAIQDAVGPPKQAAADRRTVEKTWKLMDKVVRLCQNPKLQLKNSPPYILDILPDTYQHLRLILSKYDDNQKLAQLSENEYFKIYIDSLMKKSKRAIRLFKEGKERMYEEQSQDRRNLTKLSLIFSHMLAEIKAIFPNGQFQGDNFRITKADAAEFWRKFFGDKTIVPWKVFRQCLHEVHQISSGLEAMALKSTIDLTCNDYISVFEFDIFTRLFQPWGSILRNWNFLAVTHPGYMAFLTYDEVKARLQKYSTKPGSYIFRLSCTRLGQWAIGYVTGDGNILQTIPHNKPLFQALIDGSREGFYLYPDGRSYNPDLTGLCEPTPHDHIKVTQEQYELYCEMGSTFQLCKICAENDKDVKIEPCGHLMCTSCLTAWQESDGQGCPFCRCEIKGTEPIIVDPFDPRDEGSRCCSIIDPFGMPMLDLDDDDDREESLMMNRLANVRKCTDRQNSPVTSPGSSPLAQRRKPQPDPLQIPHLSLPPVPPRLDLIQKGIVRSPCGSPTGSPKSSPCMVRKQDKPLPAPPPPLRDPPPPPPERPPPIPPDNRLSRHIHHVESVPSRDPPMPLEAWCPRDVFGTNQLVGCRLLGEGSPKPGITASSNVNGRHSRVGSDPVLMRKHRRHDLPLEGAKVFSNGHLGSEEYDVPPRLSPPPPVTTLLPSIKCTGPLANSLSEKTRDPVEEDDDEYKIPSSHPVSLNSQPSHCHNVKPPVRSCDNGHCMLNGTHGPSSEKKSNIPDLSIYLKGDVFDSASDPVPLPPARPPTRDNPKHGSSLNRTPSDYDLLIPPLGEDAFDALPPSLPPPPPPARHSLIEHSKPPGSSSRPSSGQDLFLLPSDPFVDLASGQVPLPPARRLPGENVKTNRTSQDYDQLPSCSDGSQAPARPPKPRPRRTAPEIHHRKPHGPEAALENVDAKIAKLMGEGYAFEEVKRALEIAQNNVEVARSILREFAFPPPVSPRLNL

pIC50, > 7.00:
CCOc1cc(-c2ccc(F)cc2C(=O)N2CC(F)(F)C2)cc(NC(=O)c2cc(CNC[C@H](C)OC)cn(C3CC3)c2=O)n1 [Example 373]
COCCNCc1cc(C(=O)Nc2cc(-c3ccc(C#N)cc3C(=O)N3CC(F)(F)C3)cc(C3CC3)n2)c(=O)n(C2CC2)c1 [Example 374]
N#Cc1ccc(-c2cc(NC(=O)c3cc(CNCCCF)cn(C4CC4)c3=O)nc(C3CC3)c2)c(C(=O)N2CC(F)(F)C2)c1 [Example 375]
C[C@H](NCc1cc(C(=O)Nc2cc(-c3ccc(C#N)cc3C(=O)N3CC(F)(F)C3)cc(C3CC3)n2)c(=O)n(C2CC2)c1)C1CCCO1 (stereo partly shown) [Example 376]
CC(C)Oc1cc(-c2ccc(OC(F)F)cc2C(=O)N2CC(F)C2)cc(NC(=O)c2cc(CNC[C@@H]3COCCO3)cn(C)c2=O)n1 [Example 377]
O=C(Nc1cc(-c2ccc(Cl)cc2C(=O)N2CC(F)(F)C2)cc(C2CC2)n1)c1cc(CNC[C@@H]2CCCO2)cn(C2CC2)c1=O [Example 378]
O=C(Nc1cc(-c2ccc(OC(F)F)cc2C(=O)N2CC(F)(F)C2)cc(C2CC2)n1)c1cc(CNC[C@@H]2COCCO2)cn(C2CC2)c1=O [Example 379]
CO[C@@H](C)CNCc1cc(C(=O)Nc2cc(-c3ccc(F)cc3C(=O)N3CC(F)(F)C3)cc(NC(C)C)n2)c(=O)n(C)c1 [Example 380]
N#Cc1ccc(-c2cc(NC(=O)c3cc(CNCCC(F)F)cn(C4CC4)c3=O)nc(C3CC3)c2)c(C(=O)N2CC(F)(F)C2)c1 [Example 381]
COCCNCc1cc(C(=O)Nc2cc(-c3ccc(Cl)cc3C(=O)N3CC(F)(F)C3)cc(C3CC3)n2)c(=O)n(C2CC2)c1 [Example 382]
N#Cc1ccc(-c2cc(NC(=O)c3cc(CNCC4CC4)cn(C4CC4)c3=O)nc(C3CC3)c2)c(C(=O)N2CC(F)(F)C2)c1 [Example 383]
C[C@@H]1C[C@H]1CNCc1cc(C(=O)Nc2cc(-c3ccc(Cl)cc3C(=O)N3CC(F)(F)C3)cc(C3CC3)n2)c(=O)n(C2CC2)c1 [Example 384]
CC1(CNCc2cc(C(=O)Nc3cc(-c4ccc(C#N)cc4C(=O)N4CC(F)(F)C4)cc(C4CC4)n3)c(=O)n(C3CC3)c2)CC1 [Example 385]
CC(C)Oc1cc(-c2ccc(C#N)cc2C(=O)N2CC(F)(F)C2)cc(NC(=O)c2cc(CNC[C@@H]3COCCO3)cn(C)c2=O)n1 [Example 386]
CO[C@@H](C)CNCc1cc(C(=O)Nc2cc(-c3ccc(F)cc3C(=O)N3CC(F)(F)C3)cc(OC(C)C)n2)c(=O)n(C)c1 [Example 387]
O=C(Nc1cc(-c2ccc(OC(F)F)cc2C(=O)N2CC(F)(F)C2)cc(C2CC2)n1)c1cc(CNC[C@@H]2CCCCO2)cn(C2CC2)c1=O [Example 388]
CC(C)Oc1cc(-c2ccc(C#N)cc2C(=O)N2CC(F)(F)C2)cc(NC(=O)c2cc(CNC[C@@H]3CCCO3)cn(C)c2=O)n1 [Example 389]
CC1(NCc2cc(C(=O)Nc3cc(-c4ccc(C#N)cc4C(=O)N4CC(F)(F)C4)cc(C4CC4)n3)c(=O)n(C3CC3)c2)CCC1 [Example 390]
N#Cc1ccc(-c2cc(NC(=O)c3cc(CNCCC(F)(F)F)cn(C4CC4)c3=O)nc(C3CC3)c2)c(C(=O)N2CC(F)(F)C2)c1 [Example 391]
CC(C)Oc1cc(-c2ccc(C#N)cc2C(=O)N2CC(F)(F)C2)cc(NC(=O)c2cc(CNC[C@@H]3CCCCO3)cn(C3CC3)c2=O)n1 [Example 392]
CO[C@@H](C)CNCc1cc(C(=O)Nc2cc(-c3ccc(C#N)cc3C(=O)N3CC(F)(F)C3)cc(C3CC3)c2)c(=O)n(C2CC2)c1 [Example 393]
CO[C@@H](C)CNCc1cc(C(=O)Nc2cc(-c3ccc(C#N)cc3C(=O)N3CC(C)(F)C3)cc(C3CC3)n2)c(=O)n(C2CC2)c1 [Example 394]
CC(C)[C@H](C)NCc1cc(C(=O)Nc2cc(-c3ccc(Cl)cc3C(=O)N3CC(F)(F)C3)cc(C3CC3)n2)c(=O)n(C2CC2)c1 [Example 395]
CO[C@@H](C)CNCc1cc(C(=O)Nc2cc(-c3ccc(F)cc3C(=O)N3CC(F)(F)C3)cc(C3CC3)c2)c(=O)n(C2CC2)c1 [Example 396]
N#Cc1ccc(-c2cc(NC(=O)c3cc(CNC4CCCC4)cn(C4CC4)c3=O)nc(C3CC3)c2)c(C(=O)N2CC(F)(F)C2)c1 [Example 397]
O=C(Nc1cc(-c2ccc(Cl)cc2C(=O)N2CC(F)(F)C2)cc(C2CC2)n1)c1cc(CNC[C@@H]2CCCCO2)cn(C2CC2)c1=O [Example 398]
C[C@H]1CCCN(Cc2cc(C(=O)Nc3cc(-c4ccc(C#N)cc4C(=O)N4CC(F)(F)C4)cc(C4CC4)n3)c(=O)n(C3CC3)c2)C1 [Example 399]
N#Cc1ccc(-c2cc(NC(=O)c3cc(CNCC4(F)CCC4)cn(C4CC4)c3=O)nc(C3CC3)c2)c(C(=O)N2CC(F)(F)C2)c1 [Example 400]
COC(C)(C)CNCc1cc(C(=O)Nc2cc(-c3ccc(C#N)cc3C(=O)N3CC(F)(F)C3)cc(C3CC3)n2)c(=O)n(C2CC2)c1 [Example 401]
CO[C@H]1CC[C@@H]1NCc1cc(C(=O)Nc2cc(-c3ccc(C#N)cc3C(=O)N3CC(F)(F)C3)cc(C3CC3)n2)c(=O)n(C2CC2)c1 [Example 402]
COCCNCc1cc(C(=O)Nc2cc(-c3ccc(F)cc3C(=O)N3CC(F)(F)C3)cc(C3CC3)n2)c(=O)n(C2CC2)c1 [Example 403]
COCCNCc1cc(C(=O)Nc2cc(-c3ccc(F)cc3C(=O)N3CC(F)C3)cc(C3CC3)n2)c(=O)n(C2CC2)c1 [Example 404]
COCCNCc1cc(C(=O)Nc2cc(-c3c(Cl)cc(Cl)cc3C(=O)N3CC(F)(F)C3)cc(C3CC3)n2)c(=O)n(C2CC2)c1 [Example 405]
O=C(Nc1cc(-c2ccc(Cl)cc2C(=O)N2CC(F)(F)C2)cc(C2CC2)n1)c1cc(CNCC2CC2)cn(C2CC2)c1=O [Example 406]
CC(C)Oc1cc(-c2ccc(C#N)cc2C(=O)N2CC(F)(F)C2)cc(NC(=O)c2cc(CNC[C@@H]3CCCCO3)cn(C)c2=O)n1 [Example 407]
CC1(CNCc2cc(C(=O)Nc3cc(-c4ccc(Cl)cc4C(=O)N4CC(F)(F)C4)cc(C4CC4)n3)c(=O)n(C3CC3)c2)CC1 [Example 408]
N#Cc1ccc(-c2cc(NC(=O)c3cc(CN[C@H]4CCC[C@@H]4O)cn(C4CC4)c3=O)nc(C3CC3)c2)c(C(=O)N2CC(F)(F)C2)c1 [Example 409]
CC(C)CCNCc1cc(C(=O)Nc2cc(-c3ccc(Cl)cc3C(=O)N3CC(F)(F)C3)cc(C3CC3)n2)c(=O)n(C2CC2)c1 [Example 410]
CO[C@@H](C)CNCc1cc(C(=O)Nc2cc(-c3cc(Cl)c(Cl)cc3C(=O)N3CC(F)(F)C3)cc(C3CC3)n2)c(=O)n(C2CC2)c1 [Example 411]
N#Cc1ccc(-c2cc(NC(=O)c3cc(CNC[C@@H]4CCOC4)cn(C4CC4)c3=O)nc(C3CC3)c2)c(C(=O)N2CC(F)(F)C2)c1 [Example 412]
